Consider 20 molecules from US11608319B2, “Beta-amino acid derivative, kinase inhibitor and pharmaceutical composition containing the same, and method for performing an in vivo related application that benefits from the inhibition of a kinase” (Industrial Technology Research Institute, priority 2019, dated 2023).

Counter-ions that a name gives are not always drawn. Like-named read-outs stand apart in the source and are kept apart here.

For one experiment, the target named is ROCK1 (Homo sapiens (Human), UniProt Q13464). Put plainly: biochemical.
Sequence of ROCK1 (Q13464 whole entry, species assumed): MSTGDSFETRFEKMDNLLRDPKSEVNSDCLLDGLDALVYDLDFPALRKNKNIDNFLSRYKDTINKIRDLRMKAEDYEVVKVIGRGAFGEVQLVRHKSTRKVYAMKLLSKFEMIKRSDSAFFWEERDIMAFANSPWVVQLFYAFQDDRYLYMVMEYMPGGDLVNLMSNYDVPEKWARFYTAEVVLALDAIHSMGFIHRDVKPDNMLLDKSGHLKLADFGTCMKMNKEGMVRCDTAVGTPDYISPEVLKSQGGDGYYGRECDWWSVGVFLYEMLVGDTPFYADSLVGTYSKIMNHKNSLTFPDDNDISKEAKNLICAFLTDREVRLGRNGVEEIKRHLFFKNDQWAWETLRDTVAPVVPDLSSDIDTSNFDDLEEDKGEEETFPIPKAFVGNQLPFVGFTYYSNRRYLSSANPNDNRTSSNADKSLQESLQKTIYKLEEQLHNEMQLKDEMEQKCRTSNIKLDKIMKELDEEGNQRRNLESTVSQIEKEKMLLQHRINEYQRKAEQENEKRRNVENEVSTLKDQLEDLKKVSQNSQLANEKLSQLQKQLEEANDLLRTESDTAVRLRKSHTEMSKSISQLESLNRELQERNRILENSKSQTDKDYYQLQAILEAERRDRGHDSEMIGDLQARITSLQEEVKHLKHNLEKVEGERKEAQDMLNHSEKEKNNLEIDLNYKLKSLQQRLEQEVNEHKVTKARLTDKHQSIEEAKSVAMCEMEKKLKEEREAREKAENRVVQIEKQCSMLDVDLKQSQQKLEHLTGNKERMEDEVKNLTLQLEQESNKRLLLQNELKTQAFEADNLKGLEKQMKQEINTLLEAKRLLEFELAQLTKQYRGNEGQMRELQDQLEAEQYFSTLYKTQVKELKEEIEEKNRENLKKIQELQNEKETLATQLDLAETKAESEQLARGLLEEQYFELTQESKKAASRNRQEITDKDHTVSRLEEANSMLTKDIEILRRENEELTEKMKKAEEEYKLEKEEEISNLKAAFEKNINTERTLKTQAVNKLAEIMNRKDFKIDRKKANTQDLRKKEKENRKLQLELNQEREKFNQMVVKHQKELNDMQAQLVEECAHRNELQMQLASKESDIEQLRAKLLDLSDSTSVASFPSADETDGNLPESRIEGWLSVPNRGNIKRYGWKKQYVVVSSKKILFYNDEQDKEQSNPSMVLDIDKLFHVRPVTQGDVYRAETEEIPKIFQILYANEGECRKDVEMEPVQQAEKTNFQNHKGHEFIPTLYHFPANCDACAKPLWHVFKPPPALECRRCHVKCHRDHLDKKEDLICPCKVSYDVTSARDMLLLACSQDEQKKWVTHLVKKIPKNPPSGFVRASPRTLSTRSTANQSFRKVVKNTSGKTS
The target of the next experiment is MYLK4 (Homo sapiens (Human), UniProt Q86YV6). Put plainly: Assay for inhibitory effect on MYLK-4, LanthaScreen Eu Kinase Binding Assay. For orientation: In TR-FRET formats the signal depends on donor and acceptor labels being close together.
Sequence of MYLK4 (Q86YV6 whole entry): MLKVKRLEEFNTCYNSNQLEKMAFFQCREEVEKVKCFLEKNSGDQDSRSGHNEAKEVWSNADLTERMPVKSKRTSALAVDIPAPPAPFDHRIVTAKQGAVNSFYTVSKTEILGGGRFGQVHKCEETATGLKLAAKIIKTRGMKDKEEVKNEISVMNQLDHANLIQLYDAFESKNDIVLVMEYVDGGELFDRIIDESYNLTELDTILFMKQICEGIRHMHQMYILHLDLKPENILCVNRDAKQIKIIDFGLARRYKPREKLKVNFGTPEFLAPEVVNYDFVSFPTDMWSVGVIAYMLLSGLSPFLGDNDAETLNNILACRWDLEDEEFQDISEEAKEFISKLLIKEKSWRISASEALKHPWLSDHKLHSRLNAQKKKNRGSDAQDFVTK
A further experiment addresses YSK4 (Homo sapiens (Human), UniProt Q56UN5). Put plainly: Assay for inhibitory effect on YSK-4, Z'-LYTE kinase assay. Particulars: ATP 5 μM. In kind it is biochemical. As for the experimental part:
C. Assay for Inhibitory Effect on YSK-4
The experimental procedure referred to the Z′-LYTE Screening Protocol and Assay Conditions provided by ThermoFisher Scientific.
C-1. Material Preparation
Peptide/Kinase Mixture was pre-diluted with Kinase Buffer to 2× working concentration.
ATP solution was pre-diluted with Kinase Buffer (50 mM HEPES pH 7.5, 0.01% BRIJ-35, 10 mM MgCl2, 1 mM EGTA) to 4× working concentration.
The development reagent solution is Novel PKC Lipid Mix, which contains 2 mg/mL Phosphatidyl Serine, 0.2 mg/mL DAG in 20 mM HEPES, pH 7.4 and 0.3% CHAPS, and was pre-diluted 10 fold with development buffer.
1. 100 nL of the above diluted test compound and 2.4 μL of kinase buffer were added to a black 384-well plate (Corning, Cat. NO. 4514), then add 5 μL of the peptide/kinase mixture mentioned above was added thereto, and after that 2.5 μL of ATP solution was added thereto, and the culture plate was shaken for 30 seconds.
2. Next, the culture plate was placed at room temperature and incubated for 60 minutes.
3. After that 5 μL of the development reagent solution was added and the culture plate was shaken for 30 seconds in the dark, and then the data was read and analyzed with a fluorescence plate reader.
In addition, for the kinase, the following control group was prepared and placed on the same culture plate as the kinase:
(1) 0% Phosphorylation Control (100% Inhibition Control)
This control yields 100% cleaved peptide in the Development Reaction.
(2) 100% Phosphorylation Control
A synthetically phosphorylated peptide of the same sequence as the peptide substrate is used as the 100% Phosphorylation Control.
The Phosphorylation percent achieved in a specific reaction well (Experimental group) was calculated based on the 0% Phosphorylation Control and 100% Phosphorylation Control.

Experiment [1] deals with rabbit eyes with normal intraocular pressure. Put plainly: Evaluation of the effect of decreasing intraocular pressure in a model of rabbit with normal intraocular pressure. It counts as in vivo, New Zealand white rabbit. Particulars: for Intraocular pressure difference (mmHg): at time point of maximum effect. As to the method: Evaluation of the Effect of Decreasing Intraocular Pressure in a Model of Rabbit with Normal Intraocular Pressure
Experimental animal: New Zealand white rabbit, male, weighing more than 2 kg. New Zealand white rabbits were purchased from Huijun Farm (Changhua, Taiwan). After a one-week quarantine period, they were raised in MASTER LABORATORY Co., Ltd under the environmental conditions of 16-22° C., 30-70% relative humidity (RH), 8 hours day/16 hours night.
(1) Evaluation of the Effect of Reducing Intraocular Pressure
After weighing 12 New Zealand white rabbits (2.0-4.0 kg) and grouping them (n=3-6 in each group), the white rabbits were fixed with a wrap.

Experiment [2] shares this test system. Particulars: eye drop concentration.
Method: The maximal effect (Emax) dose evaluation of the intraocular pressure reduction model in normal rabbit
Animals: Male New Zealand white rabbits (n=7/each group);
Administration: 50 μL of the test compound was instilled in the right eye (dosed eye) and 50 μL of the vehicle (without the test compound) in the left eye (control eye) of each experimental animal. The 3 formulation mentioned above were administered once a day for 3 consecutive days.
The intraocular pressure of each animal was measured by Tono-Vet (iCare) before administration (0 hours) and 2, 4, 6 and 8 hours after administration on Day 1 and Day 3.
The maximum magnitude of the reduction in intraocular pressure %=(Intraocular pressure of the control eye−Intraocular pressure of the dosed eye)/Intraocular pressure of the control eye*100
The data presented in this experiment is the data that has removed the unqualified data (white rabbits with an intraocular pressure difference ≥2 mmHg (n=1) in the two eyes on Day 1 and >5 mmHg in the two eyes before the administration on the Day 3 (n=1) have been removed) and removed the rebound high intraocular pressure (n=3).

Sequence of YSK4 (Q56UN5 whole entry): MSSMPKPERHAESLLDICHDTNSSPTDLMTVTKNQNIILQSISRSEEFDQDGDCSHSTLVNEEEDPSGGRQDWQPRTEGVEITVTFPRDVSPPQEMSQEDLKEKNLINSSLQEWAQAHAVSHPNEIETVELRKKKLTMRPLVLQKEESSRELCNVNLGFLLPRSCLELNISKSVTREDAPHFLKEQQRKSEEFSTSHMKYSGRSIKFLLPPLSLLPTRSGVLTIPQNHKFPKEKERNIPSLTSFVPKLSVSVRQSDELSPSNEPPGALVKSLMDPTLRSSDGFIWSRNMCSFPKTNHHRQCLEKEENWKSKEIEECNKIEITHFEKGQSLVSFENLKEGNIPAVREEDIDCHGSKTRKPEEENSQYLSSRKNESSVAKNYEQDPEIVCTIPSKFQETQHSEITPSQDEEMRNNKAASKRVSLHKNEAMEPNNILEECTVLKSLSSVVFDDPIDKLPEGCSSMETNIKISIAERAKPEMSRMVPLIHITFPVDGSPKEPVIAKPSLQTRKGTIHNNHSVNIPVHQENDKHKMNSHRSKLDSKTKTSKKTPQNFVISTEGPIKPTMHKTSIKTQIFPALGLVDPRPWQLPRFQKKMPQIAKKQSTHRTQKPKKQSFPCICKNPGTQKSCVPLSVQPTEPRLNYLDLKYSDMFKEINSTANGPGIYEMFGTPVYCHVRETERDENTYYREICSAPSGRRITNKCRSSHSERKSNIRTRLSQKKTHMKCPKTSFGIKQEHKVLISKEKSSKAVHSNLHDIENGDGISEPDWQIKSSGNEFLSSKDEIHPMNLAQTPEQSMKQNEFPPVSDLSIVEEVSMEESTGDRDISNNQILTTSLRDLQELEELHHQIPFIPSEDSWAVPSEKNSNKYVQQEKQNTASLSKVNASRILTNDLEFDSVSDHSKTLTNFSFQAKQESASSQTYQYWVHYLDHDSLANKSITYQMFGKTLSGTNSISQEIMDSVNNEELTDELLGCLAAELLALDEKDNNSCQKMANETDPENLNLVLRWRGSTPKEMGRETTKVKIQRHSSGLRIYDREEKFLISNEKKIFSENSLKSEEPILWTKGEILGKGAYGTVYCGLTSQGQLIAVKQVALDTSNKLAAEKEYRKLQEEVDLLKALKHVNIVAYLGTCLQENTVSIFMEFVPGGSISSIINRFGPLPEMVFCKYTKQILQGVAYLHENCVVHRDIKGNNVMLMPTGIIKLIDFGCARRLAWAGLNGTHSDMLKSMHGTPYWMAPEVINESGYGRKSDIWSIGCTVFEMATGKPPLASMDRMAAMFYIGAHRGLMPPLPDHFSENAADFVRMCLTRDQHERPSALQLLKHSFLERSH

Consider `Cc1ccc(C(=O)OCc2ccc(C(CN)C(=O)Nc3ccc(-c4cn[nH]c4)cc3)cc2)c(C)c1` (centres unmarked) [Compound 12, 4-(1-((4-(1H-pyrazol-4-yl)phenyl)amino)-3-amino-1-oxopropan-2-yl) benzyl 2,4-dimethylbenzoate dihydrochloride], for which the IC50 (commonly the midpoint of a concentration-inhibition curve) against ROCK1 was 10 to 100 nM; at MYLK4 it was 100 to 1000 nM; on YSK4 it was > 1000 nM. In addition, the “time point at which maximum effect is achieved” value (“time point” for short) in experiment [1] (dose 0.25%) amounted to 6 h. In addition, in experiment [1] (dose 0.25%), the “Intraocular pressure difference (mmHg)” value was determined as 2.0 mmHg. Also, the “maximum effect (Emax) dose in the normal intraocular pressure rabbit model” value (shortened to “maximum effect (Emax) dose”) in experiment [2] came out at 0.25%.
For `NCC(NC(=S)Nc1ccc(-c2cn[nH]c2)cc1)c1ccccc1` (centres unmarked) [Compound 15, 1-(4-(1H-pyrazol-4-yl)phenyl)-3-(2-amino-1-phenylethyl)thiourea dihydrochloride], the IC50 against ROCK1 is 100 to 1000 nM; at MYLK4 it was 100 to 1000 nM; against YSK4, > 10000 nM.
With `NCC(C(=O)Nc1ccc(-c2cn[nH]c2)cc1)n1cc(-c2ccccc2)nn1` (centres unmarked) [Compound 2, dihydrochloride], the IC50 against ROCK1 is 10 to 100 nM; on MYLK4, 100 to 1000 nM; on YSK4, > 10000 nM.
For `NCC(C(=O)Nc1ccc(-c2cn[nH]c2)cc1)c1ccc(C=O)cc1` (centres unmarked) [Compound 13, N-(4-(1H-pyrazol-4-yl)phenyl)-3-amino-2-(4-formylphenyl)propanamide dihydrochloride], the figures for the IC50 on ROCK1 (read-out: ROCK1 IC50), at MYLK4 and at YSK4 were < 1 nM, 100 to 1000 nM and > 1000 nM, respectively.
As to `[N-]=[N+]=NC(CN)C(=O)Nc1ccc(-c2cn[nH]c2)cc1` (centres unmarked) [Compound 1, N-(4-(1H-pyrazol-4-yl)phenyl)-3-amino-2-azidopropanamide dihydrochloride], the IC50 against ROCK1 was 100 to 1000 nM; on MYLK4, 100 to 1000 nM; on YSK4, > 10000 nM.
As for `N#C/N=C(/NCc1ccccc1)Nc1ccc(-c2cn[nH]c2)cc1` [Compound 16, 1-(4-(1H-pyrazol-4-yl)phenyl)-3-benzyl-2-cyanoguanidine hydrochloride], the 50% inhibitory concentration (IC50) at ROCK1 (read-out: ROCK1 IC50), on MYLK4 and against YSK4 was > 10000 nM in each case.
As for `NCC(OCc1ccccc1)C(=O)Nc1ccc(-c2cn[nH]c2)cc1` (centres unmarked) [Compound 6, N-(4-(1H-pyrazol-4-yl)phenyl)-3-amino-2-(benzyloxy) propanamidedihydrochloride], the values for the IC50 at ROCK1, on MYLK4 and against YSK4 were 10 to 100 nM, 100 to 1000 nM and > 10000 nM, respectively.
On ROCK1, `NCC(C(=O)Nc1ccc(-c2cn[nH]c2)cc1)c1ccc(O)cc1` (centres unmarked) [Compound 9, N-(4-(1H-pyrazol-4-yl)phenyl)-3-amino-2-(4-hydroxyphenyl) propanamide dihydrochloride] displayed an IC50 of 1 to 10 nM.
For `NCC(C(=S)Nc1ccc(-c2cn[nH]c2)cc1)c1ccccc1` (centres unmarked) [Compound 14, N-(4-(1H-pyrazol-4-yl)phenyl)-3-amino-2-phenylpropanethioamide dihydrochloride], the half-inhibitory concentration (IC50) at ROCK1 was 1 to 10 nM; at MYLK4 it was 100 to 1000 nM; on YSK4, > 1000 nM. For the same molecule, the “time point” value in experiment [1] (dose 0.5%) was found to be 6 h. Also, the “Intraocular pressure difference (mmHg)” value in experiment [1] (dose 0.5%) came to 2.5 mmHg. The “maximum effect (Emax) dose” value in experiment [2] was found to be 0.5%.
As to `NCC(C(=O)Nc1ccc(Oc2cn[nH]c2)cc1)c1ccccc1` (centres unmarked) [Compound 18, N-(4-((1H-pyrazol-4-yl)oxy)phenyl)-3-amino-2-phenylpropanamide dihydrochloride], the IC50 at ROCK1 (read-out: ROCK1 IC50) is > 10000 nM.
In turn, `NCC(Oc1ccc(C(F)(F)F)cc1)C(=O)Nc1ccc(-c2cn[nH]c2)cc1` (centres unmarked) [Compound 5, N-(4-(1H-pyrazol-4-yl)phenyl)-3-amino-2-(4-(trifluoromethyl)phenoxy)propenamide dihydrochloride] returned an IC50 on ROCK1 of 1 to 10 nM. The IC50 at MYLK4 lay in the range of 100 to 1000 nM. Besides, in experiment [1] (dose 1%), the “time point” value was found to be 6 h and the “Intraocular pressure difference (mmHg)” value stood at 1.5 mmHg. In addition, the “maximum effect (Emax) dose” value in experiment [2] was 1%.
Regarding `NC[C@@H](C(=O)Nc1ccc2cnccc2c1)c1ccc(CO)cc1` [AR-13503, reference compound], the figures for the IC50 at ROCK1 (read-out: ROCK1 IC50) and on MYLK4 were < 1 nM and 100 to 1000 nM, respectively.
`NCC(Oc1ccccc1)C(=O)Nc1ccc(-c2cn[nH]c2)cc1` (centres unmarked) [Compound 4, N-(4-(1H-pyrazol-4-yl)phenyl)-3-amino-2-phenoxypropanamide dihydrochloride] came in with an IC50 at ROCK1 of 1 to 10 nM. In addition, in experiment [1] (dose 1%), the “time point” value amounted to 2 h and the “Intraocular pressure difference (mmHg)” value was 4.2 mmHg. Further, the “maximum effect (Emax) dose” value in experiment [2] turned out to be 1%.
As to `NCC(C(=O)Nc1ccc(-c2cn[nH]c2)cc1)c1ccc(CO)cc1` (centres unmarked) [Compound 11, N-(4-(1H-pyrazol-4-yl)phenyl)-3-amino-2-(4-(hydroxymethyl)phenyl)propenamide dihydrochloride], on ROCK1, the IC50 lay within 1 to 10 nM. At MYLK4, this molecule gave an IC50 of 100 to 1000 nM. In experiment [1] (dose 0.5%), the “time point” value was 1 h and the “Intraocular pressure difference (mmHg)” value is 2.0 mmHg. Besides, the “maximum effect (Emax) dose” value in experiment [2] is 0.5%.
With `Cc1ccc(C(=O)Oc2ccc(C(CN)C(=O)Nc3ccc(-c4cn[nH]c4)cc3)cc2)c(C)c1` (centres unmarked) [Compound 10, 4-(1-((4-(1H-pyrazol-4-yl)phenyl)amino)-3-amino-1-oxopropan-2-yl)phenyl 2,4-dimethylbenzoate dihydrochloride], the values for the IC50 against ROCK1, on MYLK4 and on YSK4 were 100 to 1000 nM, > 1000 nM and > 10000 nM, respectively.
On to `NCC(C(=O)Nc1ccc(-c2cn[nH]c2)cc1F)c1ccccc1` (centres unmarked) [Compound 19, 3-amino-N-(2-fluoro-4-(1H-pyrazol-4-yl)phenyl)-2-phenylpropanamide dihydrochloride], for which the IC50 on ROCK1 was 10 to 100 nM; at MYLK4 it was 100 to 1000 nM; on YSK4, > 1000 nM.
As for `NCC(O)C(=O)Nc1ccc(-c2cn[nH]c2)cc1` (centres unmarked) [Compound 3, N-(4-(1H-pyrazol-4-yl)phenyl)-3-amino-2-hydroxypropanamide dihydrochloride], the IC50 at ROCK1 is 100 to 1000 nM.
Molecule `NC[C@H](C(=O)Nc1ccc(-c2cn[nH]c2)cc1)c1ccccc1` [Compound 21, (R)—N-(4-(1H-pyrazol-4-yl)phenyl)-3-amino-2-phenylpropanamide dihydrochloride] yielded an IC50 on ROCK1 of 100 to 1000 nM. Moreover, the IC50 at MYLK4 fell in the range of 100 to 1000 nM. Moreover, in experiment [1] (dose 0.03%), the “time point” value came to 8 h and the “Intraocular pressure difference (mmHg)” value is reported as 1.3 mmHg.
For the molecule `NCC(C(=O)Nc1ccc(-c2cn[nH]c2)cc1)c1ccc(F)cc1` (centres unmarked) [Compound 8, N-(4-(1H-pyrazol-4-yl)phenyl)-3-amino-2-(4-fluorophenyl) propanamide dihydrochloride], the IC50 against ROCK1 was 1 to 10 nM; on MYLK4 it was 10 to 100 nM; against YSK4, > 1000 nM. Moreover, the “time point” value in experiment [1] (dose 1%) turned out to be 6 h. Also, in experiment [1] (dose 1%), the “Intraocular pressure difference (mmHg)” value stood at 5.2 mmHg. Moreover, the “maximum effect (Emax) dose” value in experiment [2] is recorded as 1%.
Consider `NCCN(Cc1ccc(F)cc1)C(=O)c1ccc(-c2cn[nH]c2)cc1` [Compound 17, N-(2-aminoethyl)-N-(4-fluorobenzyl)-4-(1H-pyrazol-4-yl)benzamide dihydrochloride], for which the IC50 against ROCK1 is 100 to 1000 nM; on MYLK4, > 10000 nM; at YSK4, > 10000 nM.
